Assay results from PubChem BioAssay (NCI).
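Abbreviation: GI50, concentration required for 50% inhibition of growth. TGI is the concentration that stops growth completely.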

Columns and labels:
Assay in all cases: inhibition of tumour cell growth, NCI panel, 384-well format; in the data active means GI50 below about 0.43 µM; inactive means the rest
HOP-92 NSCLC = tested on: HOP-92 NSCLC
SK-OV-3 ovarian = tested on: SK-OV-3 ovarian
MDA-MB-435 melanoma = tested on: MDA-MB-435 melanoma
RXF 393 renal = tested on: RXF 393 renal
OVCAR-8 ovarian = tested on: OVCAR-8 ovarian
HCC-2998 colon = tested on: HCC-2998 colon
ACHN renal = tested on: ACHN renal
NCI/ADR-RES ovarian = tested on: NCI/ADR-RES ovarian
HL-60(TB) leukemia = tested on: HL-60(TB) leukemia
HT29 colon = tested on: HT29 colon
CAKI-1 renal = tested on: CAKI-1 renal
CCRF-CEM leukemia = tested on: CCRF-CEM leukemia
MDA-MB-468 breast = tested on: MDA-MB-468 breast
SNB-75 CNS = tested on: SNB-75 CNS
HCT-15 colon = tested on: HCT-15 colon
HOP-62 NSCLC = tested on: HOP-62 NSCLC
SF-268 CNS = tested on: SF-268 CNS
SW-620 colon = tested on: SW-620 colon
OVCAR-5 ovarian = tested on: OVCAR-5 ovarian
DU-145 prostate = tested on: DU-145 prostate
IGROV1 ovarian = tested on: IGROV1 ovarian
EKVX NSCLC = tested on: EKVX NSCLC
SK-MEL-2 melanoma = tested on: SK-MEL-2 melanoma
TK-10 renal = tested on: TK-10 renal
NCI-H522 lung = tested on: NCI-H522 lung
UACC-257 melanoma = tested on: UACC-257 melanoma
U251 glioblastoma = tested on: U251 glioblastoma
T-47D breast = tested on: T-47D breast
SK-MEL-28 melanoma = tested on: SK-MEL-28 melanoma
MDA-MB-231 breast = tested on: MDA-MB-231 breast
M14 melanoma = tested on: M14 melanoma
PC-3 prostate = tested on: PC-3 prostate
MOLT-4 leukemia = tested on: MOLT-4 leukemia
SR leukemia = tested on: SR leukemia
UACC-62 melanoma = tested on: UACC-62 melanoma
BT-549 breast = tested on: BT-549 breast
MCF7 breast = tested on: MCF7 breast
A498 renal = tested on: A498 renal
NCI-H23 lung = tested on: NCI-H23 lung
OVCAR-3 ovarian = tested on: OVCAR-3 ovarian
NCI-H226 lung = tested on: NCI-H226 lung
SN12C renal = tested on: SN12C renal
COLO 205 colon = tested on: COLO 205 colon
HS 578T breast = tested on: HS 578T breast
OVCAR-4 ovarian = tested on: OVCAR-4 ovarian
NCI-H460 NSCLC = tested on: NCI-H460 NSCLC
KM12 colon = tested on: KM12 colon
MALME-3M melanoma = tested on: MALME-3M melanoma
A549 NSCLC = tested on: A549 NSCLC
NCI-H322M lung = tested on: NCI-H322M lung
786-0 renal = tested on: 786-0 renal
SNB-19 CNS = tested on: SNB-19 CNS
SK-MEL-5 melanoma = tested on: SK-MEL-5 melanoma
SF-295 CNS = tested on: SF-295 CNS
SF-539 CNS = tested on: SF-539 CNS
RPMI-8226 leukemia = tested on: RPMI-8226 leukemia

NCC(=O)CCC(=O)O
inactive: GI50 (HOP-92 NSCLC) > 100 µM | GI50 (SK-OV-3 ovarian) 45.2 µM | GI50 (MDA-MB-435 melanoma) > 100 µM | GI50 (RXF 393 renal) > 100 µM | GI50 (OVCAR-8 ovarian) > 100 µM | GI50 (HCC-2998 colon) > 100 µM | GI50 (ACHN renal) > 100 µM | GI50 (NCI/ADR-RES ovarian) > 100 µM | GI50 (HL-60(TB) leukemia) > 100 µM | GI50 (HT29 colon) > 100 µM | GI50 (CAKI-1 renal) > 100 µM | GI50 (CCRF-CEM leukemia) 62.4 µM | GI50 (MDA-MB-468 breast) 26.7 µM | GI50 (SNB-75 CNS) > 100 µM | GI50 (HCT-15 colon) > 100 µM | GI50 (HOP-62 NSCLC) > 100 µM | GI50 (SF-268 CNS) > 100 µM | GI50 (SW-620 colon) > 100 µM | GI50 (OVCAR-5 ovarian) > 100 µM | GI50 (DU-145 prostate) > 100 µM | GI50 (IGROV1 ovarian) > 100 µM | GI50 (EKVX NSCLC) > 100 µM | GI50 (SK-MEL-2 melanoma) > 100 µM | GI50 (TK-10 renal) > 100 µM | GI50 (NCI-H522 lung) > 100 µM | GI50 (UACC-257 melanoma) > 100 µM | GI50 (U251 glioblastoma) > 100 µM | GI50 (T-47D breast) > 100 µM | GI50 (SK-MEL-28 melanoma) > 100 µM | GI50 (MDA-MB-231 breast) > 100 µM | GI50 (M14 melanoma) > 100 µM | GI50 (PC-3 prostate) > 100 µM | GI50 (MOLT-4 leukemia) 73.2 µM | GI50 (SR leukemia) > 100 µM | GI50 (UACC-62 melanoma) > 100 µM | GI50 (BT-549 breast) > 100 µM | GI50 (MCF7 breast) > 100 µM | GI50 (A498 renal) > 100 µM | GI50 (NCI-H23 lung) > 100 µM | GI50 (OVCAR-3 ovarian) > 100 µM | GI50 (NCI-H226 lung) > 100 µM | GI50 (SN12C renal) > 100 µM | GI50 (COLO 205 colon) > 100 µM | GI50 (HS 578T breast) > 100 µM | GI50 (OVCAR-4 ovarian) 62.9 µM | GI50 (NCI-H460 NSCLC) > 100 µM | GI50 (KM12 colon) > 100 µM | GI50 (MALME-3M melanoma) > 100 µM | GI50 (A549 NSCLC) > 100 µM | GI50 (NCI-H322M lung) > 100 µM | GI50 (786-0 renal) > 100 µM | GI50 (SNB-19 CNS) > 100 µM | GI50 (SK-MEL-5 melanoma) > 100 µM | GI50 (SF-295 CNS) > 100 µM | GI50 (SF-539 CNS) > 100 µM | GI50 (RPMI-8226 leukemia) > 100 µM
74.7 µM: TGI (MDA-MB-468 breast)
> 100 µM: TGI (HOP-92 NSCLC) | TGI (SK-OV-3 ovarian) | TGI (MDA-MB-435 melanoma) | TGI (RXF 393 renal) | TGI (OVCAR-8 ovarian) | TGI (HCC-2998 colon) | TGI (ACHN renal) | TGI (NCI/ADR-RES ovarian) | TGI (HL-60(TB) leukemia) | TGI (HT29 colon) | TGI (CAKI-1 renal) | TGI (CCRF-CEM leukemia) | TGI (SNB-75 CNS) | TGI (HCT-15 colon) | TGI (HOP-62 NSCLC) | TGI (SF-268 CNS) | TGI (SW-620 colon) | TGI (OVCAR-5 ovarian) | TGI (DU-145 prostate) | TGI (IGROV1 ovarian) | TGI (EKVX NSCLC) | TGI (SK-MEL-2 melanoma) | TGI (TK-10 renal) | TGI (NCI-H522 lung) | TGI (UACC-257 melanoma) | TGI (U251 glioblastoma) | TGI (T-47D breast) | TGI (SK-MEL-28 melanoma) | TGI (MDA-MB-231 breast) | TGI (M14 melanoma) | TGI (PC-3 prostate) | TGI (MOLT-4 leukemia) | TGI (SR leukemia) | TGI (UACC-62 melanoma) | TGI (BT-549 breast) | TGI (MCF7 breast) | TGI (A498 renal) | TGI (NCI-H23 lung) | TGI (OVCAR-3 ovarian) | TGI (NCI-H226 lung) | TGI (SN12C renal) | TGI (COLO 205 colon) | TGI (HS 578T breast) | TGI (OVCAR-4 ovarian) | TGI (NCI-H460 NSCLC) | TGI (KM12 colon) | TGI (MALME-3M melanoma) | TGI (A549 NSCLC) | TGI (NCI-H322M lung) | TGI (786-0 renal) | TGI (SNB-19 CNS) | TGI (SK-MEL-5 melanoma) | TGI (SF-295 CNS) | TGI (SF-539 CNS) | TGI (RPMI-8226 leukemia)
